Assay results published in patent US20220030866A1, “CONJUGATES OF AUXIN ANALOGS” (The State of Israel, Ministry of Agriculture & Rural …, priority 2019, published 2022).

Experiments:
Type in all cases: in vivo
[1] = tested on: cuttings from mature Eucalyptus grandis trees; assay: rooting of cuttings from mature Eucalyptus grandis trees; details: for rooting compared with Compound 1a (4-CPA-ethanolamine), in words: 100 μM, submerging and/or spraying, with or without 6000 ppm IBA; for rooting percentage of eucalyptus cuttings: Example 12: 6000 ppm IBA potassium salt and 50 μM conjugate dip 1 minute, leaves sprayed with 50 μM
Experimental: Eight-year-old Eucalyptus grandis plants were grown from seeds and placed in a net house in 20 liter pots containing peat and tuff (70:30, v/v), drip irrigated and fertilized with 3 liters of Shefer™ 737 liquid fertilizer (ICL Fertilizers, Israel) per cubic meter of water. Cuttings were collected from branches which grew 2-2.5 meters above the ground. Cuttings were 2-3 mm thick branches, 15 cm long, with 1-2 pairs of leaves. The leaf blades were cut in half to decrease transpiration. Cuttings were treated with 6000 ppm IBA (potassium indole-3-butyric acid) for 1 minute with or without 100 μM of each tested compound. The tested compounds were either applied to the base of the cutting, with or without IBA and/or sprayed on the foliage in the presence of 0.05% Triton™ X-100 surfactant. Cuttings were rooted in rooting tables heated to 25° C. under constant 90% humidity, in a controlled-climate greenhouse. The rooting medium contained crushed polystyrene foam: vermiculite no. 3: pit (3:2:1, v/v/v). Rooting was recorded after 30-60 days. Roots system architecture was analyzed by WinRHIZO™ system scanner and software.
Exemplary conjugates prepared as described in Example 1 were tested for their ability to promote adventitious root (AR) formation in cuttings from mature eucalyptus (Eucalyptus grandis) trees. In this model, AR formation is difficult to induce, with 5-15% root development in the presence of IBA potassium salt [Abu-Abied et al., Plant J 2012, 71:787-799], such that effective AR formation indicates a potent root formation activity.
Various concentrations and mode of applications were tested for each compound in the presence or absence of IBA (the “gold standard” rooting enhancer). A concentration of 100 μM of each conjugate was used for an initial screen of 37 conjugates, in which the compounds were applied to the base of the cutting by dipping (submerging the cutting base in a solution of the conjugate for one minute) or to the foliage by spraying. After 45 days, the cuttings were scored for the presence of callus or roots.
Conjugates prepared as described herein were evaluated in a Eucalyptus grandis rooting model, according to procedures such as described hereinabove. The bases of cuttings (a 12-15 cm long branch with the two upper leaves, whose blades were cut in half) were dipped in a solution containing 6000 ppm IBA potassium salt and 50 μM of conjugate for 1 minute, and the leaves were sprayed with 50 μM of the same conjugate (mixed with 0.5% Triton™ X-100 surfactant). The cuttings were imbedded in a heated (25° C.) rooting table containing a 1:2:3 ratio of peat:vermiculite:polystyrene, under 90% relative humidity.

mung bean cuttings = assay: rooting of mung bean cuttings (number of adventitious roots per cutting); details: for effect on AR formation in mung bean cuttings, in words: tested at 2, 10 or 50 μM
Experimental: Mung bean cuttings have been used for many years as a model for assessing the effect of plant hormones and synthetic chemicals on the rooting process. In the present study, this system was used to ascertain activity of conjugates in inducing adventitious root (AR) formation, and to evaluate the rate of conjugate hydrolysis that releases the free active auxin. […] The rooting activity in this system is determined by the number of adventitious roots per cutting.
The mung bean model was used to examine the activity of conjugates of three phenoxy acids, 4-CPA, MCPA, and 2-DP, on rooting. For comparison, plants were treated with (unconjugated) IBA or with 2-DP conjugated to glycine methyl ester (Gly-ME).

[2] = tested on: avocado rootstock cuttings; assay: rooting of avocado rootstock cuttings; details: vc51 rootstock, IBA with compound; for rooting success rate of green avocado branches, in words: compared with IBA alone
Source text: Avocado rootstock is extremely difficult to root. Currently, the common technique for propagating clones of avocado rootstock is to graft the desired rootstock on a seedling, and transfer to the dark to generate an etiolated branch. This branch can be rooted and grafted with the desired variety while still grafted on the seed [Frolich & Platt, California Avocado Society 1971-72 Yearbook 1972, 55:97-109]. However, the preparation of such twice-grafted seedlings is time-consuming and expensive.
The ability of exemplary conjugates to promote rooting in green avocado cuttings (in the presence of IBA) was therefore examined. In particular, Compounds 2h (MCPA-methanol), 4b (NAA-β-alanine methyl ester), 3g (2-DP-methyl-4-aminobenzoate), 3f (2-DP-p-toluidine), 1l (4-CPA-morpholine) and is (4-CPA-D-Trp) were tested.
Exemplary conjugates were also tested for rooting the hard-to-root species of avocado (VC801 rootstock) and argan, according to procedures described hereinabove.

Arabidopsis seedlings = assay: root elongation inhibition in Arabidopsis seedlings; details: 50 nM, after 5 days
Experimental: Adventitious roots (ARs) were induced in intact plants, using previously described procedures [Gutierrez et al., Plant Cell 2009, 21:3119-3132; Abu-Abied et al., Plant J 2012, 71:787-799; Rasmussen et al., Plant Physiol 2012, 158:1976-1987]. Briefly, seeds were germinated on MS/0.8% agar plates supplemented with 3% sucrose. The plates were kept in the dark for 2 days at 4° C., then 5 days at 22° C. in the dark, 2 days in the light, 3 days in the dark and then additional 4 days in the light to complete 2 weeks when roots were counted using a stereoscope. Sensitivity to auxin and/or auxin analogs was determined by following root elongation on vertical plates. The 4-day-old seedlings were transferred to MS plates containing 0.05 or 0.5 μM IAA and the root length was measured after 5 days, including the number of LRs in each root and calculation of the LR density. Each treatment experiment included 10-15 plants and was repeated 3 times.
A common technique for evaluating auxin activity is by determining the ability of a compound to inhibit root elongation [Zolman et al., Genetics 2000, 156:1323-1337]. In order to use this assay for comparing auxin activities of different conjugates, the minimum concentration of free 4-CPA that is active in the root elongation inhibition assay was determined. Four days old seedlings were placed in vertical plates containing increasing concentrations of 4-CPA. The root lengths were marked daily during 5 days.
Based on the above results, the effect of conjugates of 4-CPA (Compounds 1o-1t) on root elongation after 5 days was determined at concentrations of 50 nM.

[3] = Table 1, 10 μM, water control 29.6
[4] = Table 1, 50 μM, water control 29.6

CCCCNC(=O)COc1ccc(Cl)cc1 [Compound 1j]
rooting compared with Compound 1a (4-CPA-ethanolamine), in words [1]: not more effective at inducing rooting | rooting of mung bean cuttings (number of roots per cutting) (mung bean cuttings; Table 2, 2 μM): 22 | rooting of mung bean cuttings (number of roots per cutting) (mung bean cuttings; Table 2, 10 μM): 0 | rooting of mung bean cuttings (number of roots per cutting) (mung bean cuttings; Table 2, 50 μM): 0

CC(Oc1ccc(Cl)cc1Cl)C(=O)NCCO (stereo not drawn) [Compound 3a]
rooting of mung bean cuttings (number of roots per cutting) (mung bean cuttings; [3]): 26.4 | rooting of mung bean cuttings (number of roots per cutting) (mung bean cuttings; [4]): 24.1

Cc1ccccc1NC(=O)COc1ccc(Cl)cc1C [Compound 2e]
rooting of mung bean cuttings (number of roots per cutting) (mung bean cuttings; [3]): 23.6 | rooting of mung bean cuttings (number of roots per cutting) (mung bean cuttings; [4]): 0

COC(=O)CCNC(=O)Cc1cccc2ccccc12 [Compound 4b, NAA-β-alanine methyl ester]
roots per cutting of green avocado branches compared with etiolated branches treated with IBA, in words [2]: considerably more roots per cutting | rooting success rate of green avocado branches, in words [2]: considerably enhanced the rooting success rate

O=C(COc1ccc(Cl)cc1)N1CCOCC1 [Compound 1l, 4-CPA-morpholine]
rooting compared with Compound 1a (4-CPA-ethanolamine), in words [1]: not more effective at inducing rooting | rooting of mung bean cuttings (number of roots per cutting) (mung bean cuttings; Table 2, 2 μM): 23 | rooting of mung bean cuttings (number of roots per cutting) (mung bean cuttings; Table 2, 10 μM): 0 | rooting of mung bean cuttings (number of roots per cutting) (mung bean cuttings; Table 2, 50 μM): 0 | roots per cutting of green avocado branches compared with etiolated branches treated with IBA, in words [2]: considerably more roots per cutting | rooting success rate of green avocado branches, in words [2]: considerably enhanced the rooting success rate

Cc1ccccc1NC(=O)COc1ccc(Cl)cc1 [Compound 1e]
rooting of mung bean cuttings (number of roots per cutting) (mung bean cuttings; [4]): 0

COC(=O)CCNC(=O)COc1ccc(Cl)cc1C [Compound 2b]
rooting of mung bean cuttings (number of roots per cutting) (mung bean cuttings; [3]): 94.8 | rooting of mung bean cuttings (number of roots per cutting) (mung bean cuttings; [4]): 63.2

COC(=O)[C@@H](CC(C)C)NC(=O)COc1ccc(Cl)cc1 [4-CPA-D-Leu-methyl ester]
rooting percentage of eucalyptus cuttings [1]: 5%

COC(=O)COc1ccc(Cl)cc1C [Compound 2h, MCPA-methanol]
roots per cutting of green avocado branches compared with etiolated branches treated with IBA, in words [2]: considerably more roots per cutting | rooting success rate of green avocado branches, in words [2]: considerably enhanced the rooting success rate

COC(=O)c1ccc(NC(=O)COc2ccc(Cl)cc2C)cc1 [Compound 2g]
rooting of mung bean cuttings (number of roots per cutting) (mung bean cuttings; [3]): 0 | rooting of mung bean cuttings (number of roots per cutting) (mung bean cuttings; [4]): 0

Cc1ccc(NC(=O)COc2ccc(Cl)cc2C)cc1 [Compound 2f]
rooting of mung bean cuttings (number of roots per cutting) (mung bean cuttings; [3]): 0 | rooting of mung bean cuttings (number of roots per cutting) (mung bean cuttings; [4]): 0

COC(=O)c1ccc(NC(=O)C(C)Oc2ccc(Cl)cc2Cl)cc1 (stereo not drawn) [Compound 3g, 2-DP-methyl-4-aminobenzoate]
rooting of mung bean cuttings (number of roots per cutting) (mung bean cuttings; [3]): 46.2 | rooting of mung bean cuttings (number of roots per cutting) (mung bean cuttings; [4]): 46.4 | roots per cutting of green avocado branches compared with etiolated branches treated with IBA, in words [2]: considerably more roots per cutting | rooting success rate of green avocado branches, in words [2]: considerably enhanced the rooting success rate

COC(=O)[C@H]1CCCN1C(=O)COc1ccc(Cl)cc1 [4-CPA-D-Pro-methyl ester]
rooting percentage of eucalyptus cuttings [1]: 10%

Cc1ccc(NC(=O)COc2ccc(Cl)cc2C)nc1 [Compound 2c]
rooting of mung bean cuttings (number of roots per cutting) (mung bean cuttings; [3]): 0 | rooting of mung bean cuttings (number of roots per cutting) (mung bean cuttings; [4]): 0

CC(Oc1ccc(Cl)cc1Cl)C(=O)O (stereo not drawn) [Compound 2-DP, 2-(2,4-dichlorophenoxy)propionic acid, reference compound]
effect on AR formation in mung bean cuttings, in words (mung bean cuttings): positively correlated to dose

COC(=O)c1ccnc(NC(=O)COc2ccc(Cl)cc2C)c1 [Compound 2d]
rooting of mung bean cuttings (number of roots per cutting) (mung bean cuttings; [3]): 64.3 | rooting of mung bean cuttings (number of roots per cutting) (mung bean cuttings; [4]): 0

O=C(COc1ccc(Cl)cc1)N(CCO)CCO [Compound 1m]
rooting compared with Compound 1a (4-CPA-ethanolamine), in words [1]: not more effective at inducing rooting

Cc1cc(Cl)ccc1OCC(=O)NCCO [Compound 2a]
rooting of mung bean cuttings (number of roots per cutting) (mung bean cuttings; [3]): 34.7 | rooting of mung bean cuttings (number of roots per cutting) (mung bean cuttings; [4]): 72.1

COC(=O)C[C@@H](NC(=O)COc1ccc(Cl)cc1)C(=O)OC [Compound 1q, 4-CPA-D-Asp-methyl diester]
rooting of mung bean cuttings (number of roots per cutting) (mung bean cuttings; Table 2, 2 μM): 67 | rooting of mung bean cuttings (number of roots per cutting) (mung bean cuttings; Table 2, 10 μM): 0 | rooting of mung bean cuttings (number of roots per cutting) (mung bean cuttings; Table 2, 50 μM): 0 | effect on root elongation relative to control, in words (Arabidopsis seedlings): did not affect root elongation

CCC(C)NC(=O)COc1ccc(Cl)cc1 (stereo not drawn) [Compound 1i]
rooting compared with Compound 1a (4-CPA-ethanolamine), in words [1]: not more effective at inducing rooting | rooting of mung bean cuttings (number of roots per cutting) (mung bean cuttings; Table 2, 2 μM): 23 | rooting of mung bean cuttings (number of roots per cutting) (mung bean cuttings; Table 2, 10 μM): 25 | rooting of mung bean cuttings (number of roots per cutting) (mung bean cuttings; Table 2, 50 μM): 0

CN(CCO)C(=O)COc1ccc(Cl)cc1 [Compound 1n]
rooting compared with Compound 1a (4-CPA-ethanolamine), in words [1]: not more effective at inducing rooting | rooting of mung bean cuttings (number of roots per cutting) (mung bean cuttings; Table 2, 2 μM): 16 | rooting of mung bean cuttings (number of roots per cutting) (mung bean cuttings; Table 2, 10 μM): 24 | rooting of mung bean cuttings (number of roots per cutting) (mung bean cuttings; Table 2, 50 μM): 35 | effect on AR formation in mung bean cuttings, in words (mung bean cuttings): moderate rooting activity at 50 μM

Cc1ccccc1NC(=O)C(C)Oc1ccc(Cl)cc1Cl (stereo not drawn) [Compound 3e]
rooting of mung bean cuttings (number of roots per cutting) (mung bean cuttings; [3]): 37.3 | rooting of mung bean cuttings (number of roots per cutting) (mung bean cuttings; [4]): 41.7

Cc1ccc(NC(=O)COc2ccc(Cl)cc2)nc1 [Compound 1c]
rooting of mung bean cuttings (number of roots per cutting) (mung bean cuttings; [4]): 0

COC(=O)c1ccnc(NC(=O)C(C)Oc2ccc(Cl)cc2Cl)c1 (stereo not drawn) [Compound 3d]
rooting of mung bean cuttings (number of roots per cutting) (mung bean cuttings; [3]): 41.6 | rooting of mung bean cuttings (number of roots per cutting) (mung bean cuttings; [4]): 85.8

COC(=O)c1ccnc(NC(=O)COc2ccc(Cl)cc2)c1 [Compound 1d]
rooting of mung bean cuttings (number of roots per cutting) (mung bean cuttings; [3]): 0 | rooting of mung bean cuttings (number of roots per cutting) (mung bean cuttings; [4]): 0

O=C(COc1ccc(Cl)cc1)N1CCCCC1 [Compound 1k]
rooting compared with Compound 1a (4-CPA-ethanolamine), in words [1]: not more effective at inducing rooting | rooting of mung bean cuttings (number of roots per cutting) (mung bean cuttings; Table 2, 2 μM): 25 | rooting of mung bean cuttings (number of roots per cutting) (mung bean cuttings; Table 2, 10 μM): 34 | rooting of mung bean cuttings (number of roots per cutting) (mung bean cuttings; Table 2, 50 μM): 0
